For assay [1], the system named is M14 (amelanotic melanoma) cells. Briefly: antiproliferation assay (72 h, CELLTITER 96), M14. The assay is classed as cell-based, human. On the procedure:
(§1) All of the compounds shown in Table 3-Table 8 below were prepared synthetically as described in EXAMPLE I. The compounds were tested for their ability to inhibit the proliferation of human cancer cells in vitro as described in the following paragraph. Table 3-Table 8 list the IC50 values in the M14 and NCI-H460 human cancer cell lines. IC50 is defined as the concentration of compound necessary to achieve 50% of the maximum growth inhibition.
(§2) For the antiproliferation assay, NCI-H460 (large cell lung carcinoma) or M14 (amelanotic melanoma) cells were grown in RPMI-1640 with 10% FBS supplemented with L-glutamine and HEPES. Cells were seeded into 96-well plates at 5×10^2 to 5×10^4 cells/well and allowed to adhere overnight; the medium was then removed. A stock solution of test compound in DMSO was diluted in medium to generate a series of working solutions. Aliquots (100 μl) of the working solutions were then added to the appropriate test wells to expose cells to the final concentrations of compound in a total volume of 100 μl. Seven different concentrations were tested, with 2-5 wells per concentration. Camptothecin was used as a positive control; wells containing vehicle without compound were used as negative controls. Plates were kept for 72 h in a 37° C., 5% CO2 incubator. After incubation, viable cells were detected with the CELLTITER 96 AQueous Non-Radioactive Cell Proliferation Assay (Promega), and IC50 values were determined using GraphPad Prism 5 software.

The subject of assay [2] is NCI-H460 (large cell lung carcinoma) cells. Briefly: antiproliferation assay (72 h, CELLTITER 96), NCI-H460. The assay is classed as cell-based, human. The note with it: read-out: NCI-H460 IC50. How it is done: as §1, §2
The mark [3] stands for this setting: Homo sapiens, NCI-H460, Table 5.
[4] abbreviates: Homo sapiens, NCI-H460, Table 7.
Where [5] appears, read: Homo sapiens, NCI-H460, Table 8.
Where [6] appears, read: Homo sapiens, NCI-H460, Table 3.
Setting [7] is: Homo sapiens, NCI-H460, Table 4.

Each structure is given as a SMILES string. Where two headings read alike, the source gives them in different places.

The term IC50 denotes the concentration that gives 50% inhibition. On to `C=CC[C@H]1C[C@]2(C(C)Cc3cc(F)c(OC)c(F)c3)OCOC2=CC1=O` (stereo partly drawn) [Compound 55, (6S,7aR)-6-allyl-7a-(1-(3,5-difluoro-4-methoxyphenyl)propan-2-yl)-7,7a-dihydrobenzo[d][1,3]dioxol-5(6H)-one], for which the IC50 in assay [1] (Homo sapiens, Table 6) is 3300 nM; in assay [2] (Homo sapiens, NCI-H460, Table 6) it was 3800 nM.

For the molecule `C=CC[C@H]1C[C@]2(C(C)Cc3ccc(OCC)cc3)OCOC2=CC1=O` (stereo partly drawn) [Compound 40, (6S,7aR)-6-allyl-7a-(1-(4-ethoxyphenyl)propan-2-yl)-7,7a-dihydrobenzo[d][1,3]dioxol-5(6H)-one], the 50% inhibitory concentration (IC50) is 650 nM in assay [1] (Homo sapiens, Table 5) and 2000 nM in assay [2] (setting [3]).

For the molecule `COc1ccc(CC(C)[C@]23C[C@H](CCCF)C(=O)C=C2OCO3)cc1OC` (stereo partly drawn) [Compound 107, (6S,7aR)-7a-(1-(3,4-dimethoxyphenyl)propan-2-yl)-6-(3-fluoropropyl)-7,7a-dihydrobenzo[d][1,3]dioxol-5(6H)-one], the IC50 in assay [1] (Homo sapiens, Table 7) is over 20000 nM; in assay [2] (setting [4]), over 20000 nM.

With `C=C(Cl)C[C@H]1C[C@]2([C@@H](C)Cc3ccc(OC)cc3F)OCOC2=CC1=O` [Compound 79, (6R,7aR)-6-(2-chloroallyl)-7a-((S)-1-(2-fluoro-4-methoxyphenyl)propan-2-yl)-7,7a-dihydrobenzo[d][1,3]dioxol-5(6H)-one], the half-maximal inhibitory concentration (IC50) in assay [1] (Homo sapiens, Table 7) was 1300 nM; in assay [2] (setting [4]), 2500 nM.

Take `C=CC[C@H]1C[C@]2([C@@H](C)Cc3ccc4c(c3)OCO4)OCOC2=CC1=O` [Compound 83, (6S,7aR)-6-allyl-7a-((S)-1-(benzo[d][1,3]dioxol-5-yl)propan-2-yl)-7,7a-dihydrobenzo[d][1,3]dioxol-5(6H)-one]: the concentration for half-maximal inhibition (IC50) was found to be 650 nM in assay [1] (Homo sapiens, Table 8) and 390 nM in assay [2] (setting [5]).

Turning to `COCC[C@H]1C[C@]2([C@@H](C)Cc3cc(O)c(OC)cc3F)OCOC2=CC1=O` [Compound 78, (6S,7aR)-7a-((S)-1-(2-fluoro-5-hydroxy-4-methoxyphenyl)propan-2-yl)-6-(2-methoxyethyl)-7,7a-dihydrobenzo[d][1,3]dioxol-5(6H)-one], the IC50 in assay [1] (Homo sapiens, Table 7) stood at 190 nM; in assay [2] (setting [4]), 270 nM.

Regarding `COc1ccc(C[C@H](C)[C@]23C[C@H](CC=C(F)F)C(=O)C=C2OCO3)c(F)c1` [Compound 68, (6S,7aR)-6-(3,3-difluoroallyl)-7a-((S)-1-(2-fluoro-4-methoxyphenyl)propan-2-yl)-7,7a-dihydrobenzo[d][1,3]dioxol-5(6H)-one], the IC50 was 860 nM in assay [1] (Homo sapiens, Table 7) and 820 nM in assay [2] (setting [4]).

On to `C=CC[C@H]1C[C@]2(C(C)Cc3cc(C(=O)O)c(OC)cc3F)OCOC2=CC1=O` (stereo partly drawn) [Compound 92, 5-(2-((3aR,5S)-5-allyl-6-oxo-3a,4,5,6-tetrahydrobenzo[d][1,3]dioxol-3a-yl)propyl)-4-fluoro-2-methoxybenzoic acid], for which the half-inhibitory concentration (IC50) in assay [1] (Homo sapiens, Table 3) was over 20000 nM; in assay [2] (setting [6]), over 20000 nM.

As for `C=CC[C@H]1C[C@]2(C(C)Cc3ccc(OC)c(OC)c3)OCOC2=C(C)C1=O` (stereo partly drawn) [Compound 88, (6S,7aR)-6-allyl-7a-(1-(3,4-dimethoxyphenyl)propan-2-yl)-4-methyl-7,7a-dihydrobenzo[d][1,3]dioxol-5(6H)-one], the IC50 in assay [1] (Homo sapiens, Table 8) turned out to be 4200 nM; in assay [2] (setting [5]), 4600 nM.

With `COc1cc(F)c(CC(C)[C@]23C[C@H](C)C(=O)C=C2OCO3)cc1F` (stereo partly drawn) [Compound 56, (6S,7aR)-7a-(1-(2,5-difluoro-4-methoxyphenyl)propan-2-yl)-6-methyl-7,7a-dihydrobenzo[d][1,3]dioxol-5(6H)-one], the IC50 in assay [1] (Homo sapiens, Table 7) came out at 140 nM; in assay [2] (setting [4]), 430 nM.

On to `C=CC[C@H]1C[C@]2([C@H](C)Cc3ccc(OC)c(Cl)c3)OCOC2=CC1=O` [Compound 39, (6S,7aR)-6-allyl-7a-((R)-1-(3-chloro-4-methoxyphenyl)propan-2-yl)-7,7a-dihydrobenzo[d][1,3]dioxol-5(6H)-one], for which the half-inhibitory concentration (IC50) was 130 nM in assay [1] (Homo sapiens, Table 4) and 420 nM in assay [2] (setting [7]).

`C=CC[C@H]1C[C@]2([C@@H](C)Cc3cc(C)c(OC)cc3F)OCOC2=CC1=O` [Compound 8, (6S,7aR)-6-allyl-7a-((S)-1-(2-fluoro-4-methoxy-5-methylphenyl)propan-2-yl)-7,7a-dihydrobenzo[d][1,3]dioxol-5(6H)-one]: the IC50 in assay [1] (Homo sapiens, Table 3) is 230 nM; in assay [2] (setting [6]) it was 650 nM.

As for `C=CC[C@H]1C[C@]2([C@@H](C)Cc3cc(-c4nnn[nH]4)c(OC)cc3F)OCOC2=CC1=O` [Compound 95, (6S,7aR)-6-allyl-7a-((S)-1-(2-fluoro-4-methoxy-5-(1H-tetrazol-5-yl)phenyl)propan-2-yl)-7,7a-dihydrobenzo[d][1,3]dioxol-5(6H)-one], the half-inhibitory concentration (IC50) was over 20000 nM in assay [1] (Homo sapiens, Table 3) and over 20000 nM in assay [2] (setting [6]).

Turning to `C=CCC1C[C@]2([C@@H](C)Cc3ccc(OC)c(C(C)=O)c3)OCOC2=CC1=O` (stereo partly drawn) [Compound 96, (7aR)-7a-((S)-1-(3-acetyl-4-methoxyphenyl)propan-2-yl)-6-allyl-7,7a-dihydrobenzo[d][1,3]dioxol-5(6H)-one], the IC50 is over 20000 nM in assay [1] (Homo sapiens, Table 4) and over 20000 nM in assay [2] (setting [7]).

On to `C=CC[C@H]1C[C@]2(C(C)Cc3cc(NC(C)=O)c(OC)cc3F)OCOC2=CC1=O` (stereo in doubt) [Compound 19, N-(5-((S)-2-((3aR,5S)-5-allyl-6-oxo-3a,4,5,6-tetrahydrobenzo[d][1,3]dioxol-3a-yl)propyl)-4-fluoro-2-methoxyphenyl)acetamide], for which the 50% inhibitory concentration (IC50) in assay [1] (Homo sapiens, Table 3) came to 52 nM; in assay [2] (setting [6]), 71 nM.

Regarding `C=CC[C@H]1C[C@]2([C@@H](C)Cc3ccc(OC)c(NC(C)=O)c3)OCOC2=CC1=O` [Compound 35, N-(5-((S)-2-((3aR,5S)-5-allyl-6-oxo-3a,4,5,6-tetrahydrobenzo[d][1,3]dioxol-3a-yl)propyl)-2-methoxyphenyl)acetamide], the IC50 came to 85 nM in assay [1] (Homo sapiens, Table 4) and 310 nM in assay [2] (setting [7]).

On to `C=CC[C@H]1C[C@]2([C@@H](C)Cc3ccc(NC(C)=O)c(F)c3)OCOC2=CC1=O` [Compound 102, N-(4-((S)-2-((3aR,55)-5-allyl-6-oxo-3a,4,5,6-tetrahydrobenzo[d][1,3]dioxol-3a-yl)propyl)-2-fluorophenyl)acetamide], for which the IC50 in assay [1] (Table 5) and in assay [2] (Table 5) was over 20000 nM each time.

On to `C=CC[C@H]1C[C@]2([C@@H](C)Cc3cc(C#N)c(OC)cc3F)OCOC2=CC1=O` [Compound 14, 5-((S)-2-((3aR,5S)-5-allyl-6-oxo-3a,4,5,6-tetrahydrobenzo[d][1,3]dioxol-3a-yl)propyl)-4-fluoro-2-methoxybenzonitrile], for which the concentration for half-maximal inhibition (IC50) in assay [1] (Homo sapiens, Table 3) is 37 nM; in assay [2] (setting [6]), 150 nM.

As for `C=CC[C@H]1C[C@]2([C@@H](C)Cc3ccc(O)cc3)OCOC2=CC1=O` [Compound 99, (6S,7aR)-6-allyl-7a-((S)-1-(4-hydroxyphenyl)propan-2-yl)-7,7a-dihydrobenzo[d][1,3]dioxol-5(6H)-one], the IC50 in assay [1] (Homo sapiens, Table 5) is over 20000 nM; in assay [2] (setting [3]), over 20000 nM.

For the molecule `C=CC[C@H]1C[C@]2([C@H](C)Cc3cc(C(=O)N(C)C)c(OC)cc3F)OCOC2=CC1=O` [Compound 93, 5-((R)-2-((3aR,5S)-5-allyl-6-oxo-3a,4,5,6-tetrahydrobenzo[d][1,3]dioxol-3a-yl)propyl)-4-fluoro-2-methoxy-N,N-dimethylbenzamide], the 50% inhibitory concentration (IC50) is over 20000 nM in assay [1] (Homo sapiens, Table 3) and over 20000 nM in assay [2] (setting [6]).

As to `C=CC[C@H]1C[C@]2([C@H](C)Cc3ccc(NC)c(F)c3)OCOC2=CC1=O` [Compound 43, (6S,7aR)-6-allyl-7a-((R)-1-(3-fluoro-4-(methylamino)phenyl)propan-2-yl)-7,7a-dihydrobenzo[d][1,3]dioxol-5(6H)-one], the IC50 in assay [1] (Homo sapiens, Table 5) was 64 nM; in assay [2] (setting [3]) it was 300 nM.

As to `C/C=C/[C@H]1C[C@]2([C@@H](C)Cc3cc(O)c(OC)cc3F)OCOC2=CC1=O` [Compound 75, (6R,7aR)-7a-((S)-1-(2-fluoro-5-hydroxy-4-methoxyphenyl)propan-2-yl)-6-((E)-prop-1-en-1-yl)-7,7a-dihydrobenzo[d][1,3]dioxol-5 (6H)-one], the IC50 stood at 510 nM in assay [1] (Homo sapiens, Table 7) and 860 nM in assay [2] (setting [4]).

Take `C/C=C/[C@H]1C[C@]2([C@H](C)Cc3cc(O)c(OC)cc3F)OCOC2=CC1=O` [Compound 74, (6R,7aR)-7a-((R)-1-(2-fluoro-5-hydroxy-4-methoxyphenyl)propan-2-yl)-6-((E)-prop-1-en-1-yl)-7,7a-dihydrobenzo[d][1,3]dioxol-5(6H)-one]: the IC50 in assay [1] (Homo sapiens, Table 7) is 120 nM; in assay [2] (setting [4]) it was 290 nM.

With `C=CCC1C[C@]2([C@@H](C)Cc3cc(F)c(NC)cc3F)OCOC2=CC1=O` (mixture of isomers) [Compound 45, 6-allyl-7a-(1-(2,5-difluoro-4-(methylamino)phenyl)propan-2-yl)-7,7a-dihydrobenzo[d][1,3]dioxol-5(6H)-one], the IC50 amounted to 98 nM in assay [1] (Homo sapiens, Table 5) and 340 nM in assay [2] (setting [3]).

Values taken from patent US9562031B1, “Phenethyldihydrobenzodioxolones and methods of use” (Sequoia Sciences, Inc., priority 2015, dated 2017).
